Assay results reported in patent US20160135455A1, “SAFENED HERBICIDAL COMPOSITIONS COMPRISING PYRIDINE CARBOXYLIC ACIDS” (Dow AgroSciences LLC, priority 2014, published 2016).
Where two headings read alike, the source gives them in different places.

Legend:
Assay type in all cases: in vivo
[1] = test system: velvetleaf (ABUTH, Abutilon theophrasti); assay: Postemergence greenhouse trial, herbicidal efficacy on velvetleaf; settings: post-emergence, 528 h, applied alone at 35 g/ha, postemergence
Experimental: (§1) Seeds of the desired test plant species were planted in Sun Gro MetroMix® 306 planting mixture, which typically has a pH of 6.0 to 6.8 and an organic matter content of about 30 percent, in plastic pots with a surface area of 103.2 square centimeters (cm^2). When required to ensure good germination and healthy plants, a fungicide treatment and/or other chemical or physical treatment was applied. The plants were grown for 7-36 days (d) in a greenhouse with an approximate 14-hour (h) photoperiod which was maintained at about 23° C. during the day and 22° C. during the night. Nutrients and water were added on a regular basis and supplemental lighting was provided with overhead metal halide 1000-Watt lamps as necessary. The plants were employed for testing when they reached the second or third true leaf stage.
(§2) Weighed amounts of technical material were dissolved in a volume of 97:3 volume per volume (v/v) acetone/dimethyl sulfoxide (DMSO) to stock solutions. […] The concentrated stock solutions were diluted with an aqueous mixture of 1.5% v/v of Agri-dex crop oil concentrate to provide the appropriate application rates. Compound requirements are based upon a 12 milliliter (mL) application volume at a rate of 187 liters per hectare (L/ha). Stocks solutions of the safeners were prepared following the same procedure. Spray solutions of the safeners and experimental compound mixtures were prepared by adding the stock solutions to the appropriate amount of dilution solution to form a 12 mL spray solution in two-way combinations. Formulated compounds were applied to the plant material with an overhead Mandel track sprayer equipped with 8002E nozzles calibrated to deliver 187 L/ha over an application area of 0.503 square meters (m^2) at a spray height of 18 inches (43 centimeters (cm)) above average plant canopy. Control plants were sprayed in the same manner with the solvent blank. All herbicide application (component a) rates are in g ae/ha and all safener (component b) rates are in g ai/ha.
(§3) The treated plants and control plants were placed in a greenhouse as described above and watered by sub-irrigation to prevent wash-off of the test compounds. After 20-22 d, the condition of the test plants as compared with that of the control plants was determined visually and scored on a scale of 0 to 100 percent where 0 corresponds to no injury and 100 corresponds to complete kill. The condition of the test plants was compared with that of the control plants as determined visually and scored on a scale of 0 to 100 percent, where 0 corresponds to no injury and 100 corresponds to complete kill. Colby's equation was used to determine the herbicidal effects expected from the mixtures.

[2] = test system: pigweed (AMARE, Amaranthus retroflexus); assay: Postemergence greenhouse trial, herbicidal efficacy on pigweed; settings: post-emergence, 528 h, applied alone at 35 g/ha, postemergence
Experimental: as §1, §2, §3

[3] = test system: winter rape (BRSNW, Brassica napus); assay: Postemergence greenhouse trial, herbicidal efficacy on winter rape; settings: post-emergence, 528 h, applied alone at 35 g/ha, postemergence
Experimental: as §1, §2, §3

[4] = test system: lambsquarters (CHEAL, Chenopodium album); assay: Postemergence greenhouse trial, herbicidal efficacy on lambsquarters; settings: post-emergence, 528 h, applied alone at 35 g/ha, postemergence
Experimental: as §1, §2, §3

[5] = test system: thistle (CIRAR, Cirsium arvense); assay: Postemergence greenhouse trial, herbicidal efficacy on thistle; settings: post-emergence, 528 h, applied alone at 35 g/ha, postemergence
Experimental: as §1, §2, §3

[6] = test system: poinsettia (EPHHL, Euphorbia heterophylla); assay: Postemergence greenhouse trial, herbicidal efficacy on poinsettia; settings: applied alone at 35 g/ha, postemergence; for pest or weed control at 35 g/ha: Euphorbia heterophylla, post-emergence, 528 h, rated after 20-22 d, read-out: % visual injury, Obs, EPHHL; for Obs, % visual injury, EPHHL: scored 20-22 d
Experimental: as §1, §2, §3

[7] = test system: wild buckwheat (POLCO, Polygonum convolvulus); assay: Postemergence greenhouse trial, herbicidal efficacy on wild buckwheat; settings: Fallopia convolvulus, post-emergence, 528 h, applied alone at 35 g/ha, postemergence
Experimental: as §1, §2, §3

[8] = test system: sorghum (SORVU, Sorghum bicolor); assay: Postemergence greenhouse trial, herbicidal efficacy on sorghum; settings: applied alone at 35 g/ha; for Obs, % visual injury, SORVU: scored 20-22 d; for % visual injury, Obs, SORVU: rated after 20-22 d
Experimental: as §1, §2, §3

[9] = test system: chickweed (STEME, Stellaria media); assay: Postemergence greenhouse trial, herbicidal efficacy on chickweed; settings: post-emergence, 528 h, applied alone at 35 g/ha, postemergence
Experimental: as §1, §2, §3

[10] = test system: wild pansy (VIOTR, Viola tricolor); assay: Postemergence greenhouse trial, herbicidal efficacy on wild pansy; settings: applied alone at 35 g/ha, postemergence; for pest or weed control at 35 g/ha: Viola tricolor, post-emergence, 528 h, scored 20-22 d, read-out: Obs, % visual injury, VIOTR; for % visual injury, Obs, VIOTR: rated after 20-22 d
Experimental: as §1, §2, §3

[11] = test system: nutsedge (CYPES, Cyperus esculentus); assay: Postemergence greenhouse trial, herbicidal efficacy on nutsedge; settings: applied alone at 35 g/ha; for % visual injury, Obs, CYPES: rated after 20-22 d
Experimental: as §1, §2, §3

[12] = test system: giant foxtail (SETFA, Setaria faberi); assay: Postemergence greenhouse trial, herbicidal efficacy on giant foxtail; settings: applied alone at 35 g/ha
Experimental: as §1, §2, §3

[13] = test system: wheat (TRZAS), Triticum aestivum (spring wheat); assay: Postemergence greenhouse trial, crop injury (phytotoxicity/safening) on wheat; settings: applied alone at 35 g/ha, scored 20-22 d, 0 = no injury, 100 = complete kill
Experimental: as §1, §2, §3
(§4) The safener fenchlorazole-ethyl was combined with compound 1, compound 2, compound 3, compound 4, compound 5, and compound 6, and applied to wheat (TRZAS), and the phytotoxicity of the herbicidal compositions was measured. In addition, the efficacy of the herbicidal composition on velvetleaf (ABUTH, Abutilon theophrasti), pigweed (AMARE, Amaranthus retroflexus), winter rape (BRSNW, Brassica napus), lambsquarters (CHEAL, Chenopodium album), thistle (CIRAR, Cirsium arvense), nutsedge (CYPES, Cyperus esculentus), poinsettia (EPHHL, Euphorbia heterophylla), wild buckwheat (POLCO, Polygonum convolvulus), giant foxtail (SETFA, Setaria faberi), sorghum (SORVU, Sorghum bicolor), chickweed (STEME, Stellaria media), and wild pansy (VIOTR, Viola tricolor) was evaluated.
The safener isoxadifen-ethyl was combined with compound 1, compound 2, compound 3, compound 4, compound 5, and compound 6, and applied to wheat (TRZAS), and the phytotoxicity of the herbicidal compositions was measured. […]

[14] = test system: corn/maize (ZEAMX), Zea mays; assay: Postemergence greenhouse trial, crop injury (phytotoxicity/safening) on corn/maize; settings: applied alone at 35 g/ha, rated after 20-22 d
Experimental: as §1
as §2, with “All herbicide application (component a) rates are in g ae/ha and all safener (component b) rates are in g ai/ha.” left out
as §3, with “Colby's equation was used to determine the herbicidal effects expected from the mixtures.” left out
as §4, with “compound” for “compound 3, compound 4, compound”, “corn/maize (ZEAMX)” for “wheat (TRZAS),”, “bicolor), and” for “bicolor),”, “media)” for “media), and wild pansy (VIOTR, Viola tricolor)”
The safener mefenpyr-diethyl was combined with compound 1, compound 2, and compound 5, and applied to corn/maize (ZEAMX) and the phytotoxicity of the herbicidal compositions were measured. […]

[15] = rated after 20-22 d, read-out: % visual injury, Obs, ABUTH
[16] = rated after 20-22 d, read-out: % visual injury, Obs, AMARE
[17] = scored 20-22 d, read-out: Obs, % visual injury, AMARE
[18] = rated after 20-22 d, read-out: % visual injury, Obs, BRSNW
[19] = scored 20-22 d, read-out: Obs, % visual injury, BRSNW
[20] = rated after 20-22 d, read-out: % visual injury, Obs, CHEAL
[21] = scored 20-22 d, read-out: Obs, % visual injury, CHEAL
[22] = rated after 20-22 d, read-out: % visual injury, Obs, CIRAR
[23] = scored 20-22 d, read-out: Obs, % visual injury, CIRAR
[24] = rated after 20-22 d, read-out: % visual injury, Obs, POLCO
[25] = scored 20-22 d, read-out: Obs, % visual injury, POLCO
[26] = rated after 20-22 d, read-out: % visual injury, Obs, STEME
[27] = scored 20-22 d, read-out: Obs, % visual injury, STEME
[28] = scored 20-22 d, read-out: Obs, % visual injury, ABUTH

Structure (SMILES)	pest or weed control at 35 g/ha [1, 15] [%]	pest or weed control at 35 g/ha [2, 16] [%]	pest or weed control at 35 g/ha [2, 17] [%]	plant injury at 35 g/ha [3, 18] [%]	plant injury at 35 g/ha [3, 19] [%]	pest or weed control at 35 g/ha [4, 20] [%]	pest or weed control at 35 g/ha [4, 21] [%]	pest or weed control at 35 g/ha [5, 22] [%]	pest or weed control at 35 g/ha [5, 23] [%]	pest or weed control at 35 g/ha [6] [%]	pest or weed control at 35 g/ha [7, 24] [%]	pest or weed control at 35 g/ha [7, 25] [%]	Obs, % visual injury, SORVU [8] [%]	pest or weed control at 35 g/ha [9, 26] [%]	pest or weed control at 35 g/ha [9, 27] [%]	pest or weed control at 35 g/ha [10] [%]	% visual injury, Obs, VIOTR [10] [%]	pest or weed control at 35 g/ha [1, 28] [%]	% visual injury, Obs, CYPES [11] [%]	Obs, % visual injury, EPHHL [6] [%]	other results
Nc1c(F)c(-c2ccc3cc[nH]c3c2F)nc(C(=O)OCc2ccccc2)c1Cl [compound 2]	80	100	100	100	100	97	97	70	70	100	100	100	70	100	100	40	40				
CCOC(=O)c1nc(C(Cl)(Cl)Cl)n(-c2ccc(Cl)cc2Cl)n1 [fenchlorazole-ethyl, reference compound]	0	0	0	0	0	0	0	0	0	0	0	0	0	0	0	0		0	0	0	Obs, % visual injury, CYPES ([11]; scored 20-22 d): 0%; % visual injury, Obs, SETFA ([12]; rated after 20-22 d): 0%; Obs, % visual injury, SETFA ([12]; scored 20-22 d): 0%; % visual injury, Obs, SORVU [8]: 0%
COC(=O)c1nc(-c2ccc3ccn(C(=O)C(C)(C)C)c3c2F)c(F)c(N)c1Cl [compound 5]	80	100	100	97	97	100	100	80	80	100	100		60	85	85	40	40	80	0		Obs, % visual injury, TRZAS [13]: 45%; % visual injury, Obs, SORVU [8]: 60%; % visual injury, Obs, ZEAMX [14]: 35%
COC(=O)c1nc(-c2ccc3ccn(C(C)=O)c3c2F)c(F)c(N)c1Cl [compound 3]			75		30		85		50			97						50		100	Obs, % visual injury, TRZAS [13]: 30%
Nc1c(F)c(-c2ccc3cc[nH]c3c2F)nc(C(=O)O)c1Cl [compound 1]	85	100	100	99	99	100	100	90	90	100	99	99		100	100	64	64	85		100	
